# According to patent US20110152218A1, “CRYSTALLINE PHOSPHOLIPID, METHOD FOR ITS PRODUCTION AND USE IN TREATING DAMAGED TISSUE” (priority 2008, published 2011):
# Assays:
# [1] = system: human peritoneal mesothelial cell (HPMC); test: HPMC proliferation, Alamar Blue and MTT assay; format: cell-based; settings: 48 hours and 72 hours; over the tested concentrations in supplemented M199
# Method: The effect of a phospholipid prepared as described in Example 1 (and/or its constituent compounds) to induce human peritoneal mesothelial cell proliferation was assessed using an Alamar Blue™ assay and an MTT assay.
# The Alamar Blue™ assay is designed to measure the proliferation of various cell types by measuring the ability of the cells to metabolise and reduce a REDOX indicator (Alamar Blue™). Reduction of the REDOX indicator results in a change in its fluorescent activity. Therefore the fluorescent activity measured is proportional to cell proliferation.
# The MTT Assay measures the proliferations of various cells and is based on the mitochondrial conversion of tetrazolium salt 3-[4,5-dimethyl-thiazol-2-yl]-2,5-diphenyltetrazium bromide (MTT), into an insoluble formazan salt. The resultant colour change is directly related to the number of viable cells.
# As described in Morgan L W et al (“Glucose degradation products (GDP) retard re-mesothelialisation independently of D-glucose concentration.” Kidney Int 64:1854-1866, 2003), primary HPMC are isolated from omental tissue biopsies donated by consenting patients undergoing elective abdominal surgery. Cells were grown to approximately 60% confluence in 96 well plates (Falcon) and used at passage 2. All cells were growth arrested in serum free M199 for 24 hours prior to use.
# The supplemented M199 medium was prepared as follows. Earle's salt medium M199 was supplemented with 100μ/ml penicillin, 100 μg/ml streptomycin, 2 mM glutamine, 5 μg/ml insulin, 5 μg/ml transferrin and 0.4 μg/ml hydrocortisone and 2 mmol/L N-2-hydroxyethylpiperazine-N′-2ethanesulfonic acid.
# The phospholipid prepared as described in Example 1 was prepared as follows. […]
# The growth medium was aspirated from each well and then the well was washed once using 200 μl per well of supplemented M199. […] The fluorescent activity of Alamar Blue™ at 540 nm (wavelength) was measured using a Dynex Revalation 96-multiwell plate reader. […]
# HPMC = HPMC ATP bioluminescence assay; format: cell-based, human; settings: 72 hours
# Method: The viability of HPMC after stimulation with FCS, phospholipid prepared according to Example 1 (Vibrated and Non-vibrated), lysophosphatidic acid (LPA), DPPC, DPPC/LPA, POPC, Curosurf, egg-PG (EPG) and the three Intralipid™ products was determined using an ATP assay. This assay measures the light emitted during the ATP dependant oxidation of luciferin in order to accurately quantify the ATP concentration.
# As described in Example 3, primary HPMC are isolated from omental tissue biopsies donated by consenting patients undergoing elective abdominal surgery. Cells are grown to approximately 60% confluence in 96 well plates (Falcon) and used at passage 2. All cells are growth arrested in serum free M199 for 24 hours prior to use.
# An ATP Bioluminescence Assay Kit CLS II (Roche Diagnostics, Cat No 1 699 695, 11857300) was used. It contains ATP Standard, Luciferase and distilled water. A 10 mM EDTA solution was prepared by dissolving 1.8612 g EDTA (Fischer Scientific, Code D/0650/60, Batch 0447430, Mr-372.24) in 500 ml H2O (or 3.7224 g in 1 litre). A BAC-extract solution was prepared by dissolving 1 g Benzalkonium Chloride (Sigma-Aldrich, Cat:-23, 442-7, Lot S22104-334) in 1 litre of 10 mM EDTA. […]
# To mix, rotate the bottle carefully. • 2) Make up an ATP standard solution having a base concentration of 1.65 μM ATP. […] Use distilled water as the control. • 4) Set the Fluostar Optima plate reader to measure luminescence. Set the Fluostar Optima plate reader pump to inject 20 μl of luciferase into each of the required wells. • 5) Place the plate into the plate reader and measure the relative light units (RLU). • 6) Prepare a standard curve such as that shown in FIG. 16 by plotting a graph of RLU against ATP concentration.
# 96 well plates from the HPMC proliferation study were defrosted. […] The ATP concentrations were calculated from the RLU of the samples using the standard curve. As an alternative to using an ATP standard curve, data can be normalised to the un-stimulated control and expressed as “ATP (% of control)”.
Compound,HPMC proliferation compared to the negative control [1],"HPMC proliferation by ATP assay (ATP % of control) compared to the negative control (HPMC; single well, over the tested concentrations)","HPMC proliferation by ATP assay compared to the negative control (HPMC; 0.0875 mg/ml, FIG. 11G)"
Lysophosphatidic acid [LPA],no significant stimulation of HPMC proliferation,no increase of HPMC proliferation,
"CCCCCCCC/C=C\CCCCCCCC(=O)O[C@H](COC(=O)CCCCCCCCCCCCCCC)COP(=O)([O-])OCC[N+](C)(C)C [POPC, Palmitoyl oleoyl phosphatidyl choline]",no significant stimulation of HPMC proliferation,,increased HPMC proliferation
